The text below walks through data of publication PMC10610545, “Preclinical Evaluation of an Imidazole-Linked Heterocycle for Alzheimer’s Disease” (Pharmaceutics, 2023).

Data set [1] in a line: Pharmacokinetics of LSL33 in CD1 mice (plasma and brain).
Protocol: The pharmacokinetic study was carried on in male CD1 mice (Envigo Laboratories) with a body
weight between 40 to 50 g (n = 3-4 per group). Animals were randomized to be included in the
treated or control groups. A single intraperitoneal dose of LSL33 (2 mg/kg, 10 ml/kg) was
administered early in the morning (between 8 and 11 a.m.) without anaesthesia. Compound was
monitored for signs of pain or distress during the time between injection and euthanasia. Mice
were sacrificed by cervical dislocation and blood (0.6 mL) was collected at different time points
in tubes with serum gel and clotting activator (Sarstedt Micro tube 1.1 mL Z-Gel). Samples were
centrifugated at 10.000 rpm for 10 min to obtain plasma and stored at -80 °C up to analysis of
compound concentration by UPLC-MS/MS.
A further data set relates to PSD95. In words: Western blot of hippocampal PSD95 in 5XFAD mice. The settings on record: 5XFAD hippocampus, 2 mg/Kg, vs 5XFAD Control. In kind it is in vivo, mouse. On the procedure:
(§1) Four-month-old female and male Wt and 5XFAD mice (n = 32) were used to carry out cognitive and molecular analyses. […] The animals had free access to food and water and were kept under standard temperature conditions (22 ± 2 °C) and 12 h/12 h light/dark cycles (300 lx/0 lx). […] After 4 weeks of treatment, cognitive tests, including short- and long-term memory and OLT, were performed to study the effects of treatment on learning and memory. Weight and water consumption were controlled each week, and the LSL33 concentration was adjusted accordingly to reach the optimal dose until euthanasia.
Three days after cognitive tests, mice were euthanized for protein extraction and RNA and DNA isolation. After euthanasia, the brains were immediately removed from the skulls, and the hippocampi were dissected, frozen, and maintained at −80 °C.
For western blotting (WB), aliquots of 20 μg of hippocampal protein were used. […]
The membranes were washed and incubated with secondary antibodies for 1 h at room temperature. […] Protein loading was routinely monitored by immunodetection of glyceraldehyde-3-phosphate dehydrogenase (GAPDH).
Figure 7 Results from an in vivo study of synaptic plasticity markers. (A) Representative protein levels and quantification by WB for PSD95. (B,C) Representative gene expression for Ngf and Bdnf Gene expression levels were determined by real-time PCR. […]
For orientation: Immunoblotting shows a protein as a band on a membrane.

In data set [2] the target is α2-adrenergic receptor (α2-AR). Put plainly: Competition binding against [3H]RX821002, membranes from post-mortem human frontal cortex. The text has this:
The inhibition constant (Ki) for each compound was obtained and is expressed as the corresponding pKi. The selectivity for these two receptors was expressed by the I2/α2 index, calculated as the antilogarithm of the […] between pKi values for I2-IR and pKi values for α2-AR.
Preparation of cellular membranes.
Human brain samples were obtained at autopsy in the Basque Institute of Legal Medicine, Bilbao, Spain. Samples from the prefrontal cortex (Brodmann’s area 9) were dissected at the time of autopsy and immediately stored at -70 °C until assay. The study was developed in compliance with policies of research and ethical review boards for postmortem brain studies.
To obtain cellular membranes (P2 fraction) the different samples were homogenized using an ultraturrax in 10 volumes of homogenization buffer (0.25 M sucrose, 5 mM Tris–HCl, pH 7.4).
The crude homogenate was centrifuged for 5 min at 1000 g (4 °C) and the supernatant was centrifuged again for 10 min at 40,000 g (4 °C). The resultant pellet was washed twice in 5 volumes of homogenization buffer and recentrifuged in similar conditions. Protein content was measured according to the method of Bradford using BSA as standard.
Competition Binding Assays.
The pharmacological activity of the compounds was evaluated through competition binding studies against the I2-IR selective radioligand [3H]2-BFI or the α2-adrenergic receptor selective radioligand [3H]RX821002. Specific binding was measured in 0.25 mL aliquots (50 mM Tris-HCl, pH 7.5) containing 100 µg of membranes, which were incubated in 96-well plates either with […]
Incubations were terminated by separating free ligand from bound ligand by rapid filtration […]
counted for radioactivity by liquid scintillation spectrometry using a MicroBeta TriLux counter (PerkinElmer). Specific binding was determined and plotted as a function of the compound concentration. Nonspecific binding was determined in the presence of idazoxan (10–5 M), a compound with well stablished affinity for I2-IR and α2-adrenergic receptors, in [3H]2-BFI and [3H]RX821002 assays. To obtain the inhibition constant (Ki) analyses of competition experiments were performed by nonlinear regression using the GraphPad Prism program. Ki values were normalized to pKi values. I2-IR/α2 selectivity index was calculated as the antilogarithm of the difference between pKi values for I2-IR and pKi values for α2-ARs.

The subject of a further data set is I2-IR. Particulars: rat cerebral cortex, 1 µM yohimbine; >50% considered significant.
The next data set has as its system 5XFAD mice. Put plainly: Novel object recognition test (NORT) in 5XFAD mice. Type of data set: in vivo, mouse. Particulars: 2 mg/Kg in drinking water, 4 weeks, vs 5XFAD Control. On the procedure:
as §1
Short- and long-term recognition memories involving cortical areas and the hippocampus were evaluated by NORT. The experimental apparatus used for this test was a 90-degree, two-arm, 25-cm-long, 20-cm-high maze of black polyvinyl chloride. The light intensity in the middle of the field was 30 lux. First, mice were individually habituated to the apparatus for 10 min per day for 3 days. On day 4, the animals were allowed to freely explore two identical objects (A and A or B and B) placed at the end of each arm for a 10 min acquisition trial (first trial-familiarization). […] During the short-term memory retention test, the time that the animal spent exploring the new object (TN) and the old object (TO) was recorded. […] TN and TO were measured from the video recordings from each trial session. […]

The mark [3] stands for this setting: male, CD1, mouse, brain, po, 2 mg/kg.
The mark [4] stands for this setting: male, CD1, mouse, plasma, oral, 2 mg/kg.

In data set [1] (setting [3]), `Cl.c1ccc2sc(-c3ncc[nH]3)cc2c1` [LSL33, 2-(Benzo[b]thiophene-2-yl)-1H-imidazole hydrochloride] had a concentration at 15 min of 15.2 ng/g and a concentration at 30 min of 6.7 ng/g. In data set [1] (setting [4]), the AUC(0-inf) (usually total exposure, with the tail of the curve extrapolated) is 3050 ng·h/mL; the AUC(0-t) (commonly exposure summed from dosing to a finite time, without extrapolation to infinity) was 2950 ng·h/mL; the Cmax – broadly, the maximum level reached in the sampled fluid or tissue – was determined as 950 ± 620 ng/mL; the Tmax (in general, the time at which the peak concentration occurs) is 0.25 h. The half-life (commonly the time in which the quantity being followed falls by half) in data set [1] (male, CD1, mouse, plasma, oral, 2 mg/kg, t1/2β (terminal elimination half-life), CD1 mice, single 2 mg/kg dose) is 5.21 h. For the same molecule, in data set [1] (plasma, 2 mg/kg), the “AUC0-1440/AUC0-∞ ratio” value is 0.97. Moreover, the “t1/2β (terminal elimination half-life)” value in data set [1] (plasma, CD1 mice, single 2 mg/kg dose, 2 mg/kg) is 5.2135 ± 0.5817 h. Moreover, the “maximum mean concentration in plasma as share of the drug administered” value in data set [1] (single oral dose) is on record as at most 1%. Also, the PSD95 protein levels entry with PSD95 is listed as “increase in PSD95”. In addition, in data set [2], the “[3H]-RX821002 α2 pKi” value is listed as 4.70 ± 0.12. For the same molecule, the “inhibition of [3H]idazoxan binding” value in the data set with I2-IR is 84%. Further, in the data set with 5XFAD mice, the “NORT discrimination index, short- and long-term memory” value was “significant improvement in cognitive impairment in both short- and long-term memories”.
With `Cl.c1ccc2oc(-n3ccnc3)cc2c1` [LSL34, 1-(Benzofuran-2-yl)-1H-imidazole hydrochloride], the “inhibition of [3H]idazoxan binding” value with I2-IR is reported as 53%.
Regarding `c1ccc2oc(-c3ncc[nH]3)cc2c1` [LSL60101, reference compound], in data set [2], the “[3H]-RX821002 α2 pKi” value is 3.18 ± 0.17.
